This is an account of results in patent US20230174488A1 (priority 2020, published 2023).

One data set concerns the target SARS-CoV-2 M^PRO (Severe acute respiratory syndrome coronavirus 2, UniProt P0DTD1). Nature of the data set: biochemical. Format: biochemical.
A further data set relates to SARS-CoV-2. Nature of the data set: In vitro antiviral cell-based assay (live SARS-CoV-2 IFA) in Vero cells. Conditions: Severe acute respiratory syndrome coronavirus 2, MOI ~0.0125, 24 hpi.
A further data set can be described thus: in vitro. Conditions: African green monkey.
The mark [1] stands for this setting: In vitro potency data, 30 min pre-incubation, 25 nM M^pro, 25 µM substrate, read-out: IC50.

Molecules are shown by their SMILES. Read-outs that look alike come from different tables or passages of the source.

As a reminder, the IC50 is the concentration that gives 50% inhibition. One may read the EC50 as the concentration at which the effect is half-maximal. Turning to `O=C(NC1CCC(F)(F)CC1)C(c1cncnc1)N(C(=O)CCl)c1ccc(-c2cncs2)cc1` (single isomer, unassigned) [2-Chloro-N-(2-((4,4-difluorocyclohexyl)amino)-2-oxo-1-(pyrimidin-5-yl)ethyl)-N-(4-(thiazol-5-yl)phenyl)acetamide], the half-maximal inhibitory concentration (IC50) on SARS-CoV-2 M^PRO (setting [1]) is 50 nM; at SARS-CoV-2 M^PRO (SARS-CoV-2 M^pro IC50′ nM, General summary table) it was 50 nM. The response in the data set on SARS-CoV-2 was half-maximal at 11.4 µM (EC50).

Take `O=C(NC1CCC(F)(F)CC1)C(c1cncnc1)N(C(=O)CCl)c1ccc(-c2ccno2)cc1` (single isomer, unassigned) [INSCoV-600J(1), 2-Chloro-N-(2-((4,4-difluorocyclohexyl)amino)-2-oxo-1-(pyrimidin-5-yl)ethyl)-N-(4-(isoxazol-5-yl)phenyl)acetamide]: on SARS-CoV-2 M^PRO (setting [1]), the half-inhibitory concentration (IC50) was found to be 63 nM. The molecule further had an EC50 in the data set with SARS-CoV-2 of 14.2 µM.

Regarding `O=C(NC1CCC(F)(F)CC1)[C@@H](c1cncnc1)N(C(=O)[C@@H](F)Cl)c1ccc(-c2ccno2)cc1` (single isomer, unassigned) [INSCoV-614A(2A), 2-Chloro-N-(2-((4,4-difluorocyclohexyl)amino)-2-oxo-1-(pyrimidin-5-yl)ethyl)-2-fluoro-N-(4-(isoxazol-5-yl)phenyl)acetamide], on SARS-CoV-2 M^PRO (setting [1]), the concentration for half-maximal inhibition (IC50) was 180 nM. For the same molecule, in the data set with SARS-CoV-2, it took 4.25 µM to reach a half-maximal effect (EC50).

`CCN(CC)CCCC(C)Nc1ccnc2cc(Cl)ccc12` (stereo not shown) [Chloroquine, chloroquine, reference compound] gave a concentration giving a half-maximal response (EC50) in the data set with SARS-CoV-2 of 7.35 µM.

As for `N#Cc1cc(OC(F)(F)F)ccc1N(C(=O)CCl)C(C(=O)NC1CCC(F)(F)CC1)c1cncnc1` (stereo not shown) [INSCoV-517A, 2-chloro-N-(2-cyano-4-(trifluoromethoxy)phenyl)-N-(2-((4,4-difluorocyclohexyl)amino)-2-oxo-1-(pyrimidin-5-yl)ethyl)acetamide], the IC50 on SARS-CoV-2 M^PRO (setting [1]) came to 90 nM. Further, the EC50 in the data set on SARS-CoV-2 turned out to be 11.1 µM.

Regarding `N#Cc1cc(OC(F)(F)F)ccc1N(C(=O)CCl)C(C(=O)NC1CCCCC1)c1cccnc1` (stereo not shown) [INSCoV-517], the concentration for half-maximal inhibition (IC50) on SARS-CoV-2 M^PRO (setting [1]) stood at 240 nM. The same molecule registered an EC50 in the data set with SARS-CoV-2 of 3.22 µM. Besides, the CC50 at 24 h in the data set “in vitro” is above 50000 nM.

With `O=C(NC1CCC(F)(F)CC1)C(c1cncnc1)N(C(=O)CCl)c1ccc(-c2cncs2)cc1` (stereo not shown) [INSCoV-600K, 2-Chloro-N-(2-((4,4-difluorocyclohexyl)amino)-2-oxo-1-(pyrimidin-5-yl)ethyl)-N-(4-(thiazol-5-yl)phenyl)acetamide], at SARS-CoV-2 M^PRO (setting [1]), the IC50 came out at 78 nM. The concentration for a half-maximal effect (EC50) in the data set on SARS-CoV-2 was 14.5 µM.

In the case of `O=C(NC1CCC(F)(F)CC1)[C@@H](c1cncnc1)N(CCc1cccc(F)c1)C(=O)C1CO1` (stereo partly shown) [INSCoV-600Q(2)], the 50% inhibitory concentration (IC50) at SARS-CoV-2 M^PRO (setting [1]) is 2220 nM.

Take `O=C(NC1CCC(F)(F)CC1)C(c1cncnc1)N(CCc1cccc(F)c1)C(=O)C1CO1` (stereo not shown) [INSCoV-600Q]: the IC50 at SARS-CoV-2 M^PRO (setting [1]) was determined as 6980 nM.

As for `O=C(NC1CCC(F)(F)CC1)C(c1cncnc1)N(C(=O)[C@H]1CO1)c1ccc(-c2cnco2)cc1` (stereo partly shown) [INSCoV-600R(1)], the IC50 on SARS-CoV-2 M^PRO (setting [1]) amounted to 19900 nM.

Consider `O=C(NC1CCC(F)(F)CC1)[C@H](c1cncnc1)N(C(=O)[C@H]1CO1)c1ccc(-c2cnco2)cc1` [INSCoV-600R(1A)], for which the half-inhibitory concentration (IC50) on SARS-CoV-2 M^PRO (setting [1]) was above 25000 nM.

For the molecule `O=C(NC1CCC(F)(F)CC1)C(c1cncnc1)N(C(=O)[C@@H]1CO1)c1ccc(-c2cnco2)cc1` (stereo partly shown) [INSCoV-600R(2)], the half-inhibitory concentration (IC50) at SARS-CoV-2 M^PRO (setting [1]) came to 6450 nM.

In the case of `O=C(NC1CCC(F)(F)CC1)[C@@H](c1cncnc1)N(C(=O)[C@@H]1CO1)c1ccc(-c2cnco2)cc1` [INSCoV-600R(2B)], the half-inhibitory concentration (IC50) on SARS-CoV-2 M^PRO (setting [1]) is above 25000 nM.

For `O=C(NC1CCC(F)(F)CC1)C(c1cncnc1)N(C(=O)C1CO1)c1ccc(-c2cnco2)cc1` (stereo not shown) [INSCoV-600R], the IC50 at SARS-CoV-2 M^PRO (setting [1]) came to 12800 nM.

In the case of `Cc1cc(-c2cccnc2)cc(F)c1NC(=O)C(c1cncnc1)N(C(=O)CCl)c1ccc(-c2cnco2)cc1` (stereo not shown) [INSCoV-600X], the IC50 on SARS-CoV-2 M^PRO (setting [1]) was found to be 1390 nM.

Consider `O=C(NC1CCC(F)(F)CC1)C(c1cncnc1)N(C(=O)C1CO1)c1ccc(-c2ccno2)cc1` (stereo not shown) [INSCoV-600Y, N-(2-((4,4-Difluorocyclohexyl)Amino)-2-Oxo-1-(Pyrimidin-5-yl)Ethyl)-N-(4-(Isoxazol-5-yl)Phenyl)Oxirane-2-Carboxamide], for which, at SARS-CoV-2 M^PRO (setting [1]), the 50% inhibitory concentration (IC50) was found to be 1990 nM.

In the case of `CN(C)C(=O)C1CCCC(NC(=O)C(c2cncnc2)N(C(=O)CCl)c2ccc(-c3cnco3)cc2)C1` (stereo not shown) [INSCoV-601CA], the 50% inhibitory concentration (IC50) on SARS-CoV-2 M^PRO (setting [1]) was determined as 1150 nM.

Turning to `O=C(NC1CCC(F)(F)CC1)C(c1ccnnc1)N(C(=O)CCl)c1ccc(-c2cncs2)cc1` (stereo not shown) [INSCoV-601F, 2-Chloro-N-(2-((4,4-Difluorocyclohexyl)Amino)-2-Oxo-1-(Pvridazin-4-vl)Ethyl)-N-(4-(Thiazol-5-vl)Phenyl)Acetamide], the half-inhibitory concentration (IC50) at SARS-CoV-2 M^PRO (setting [1]) worked out at 130 nM.

Turning to `O=C(NC1CCC(F)(F)CC1)C(c1cnccn1)N(C(=O)CCl)c1ccc(-c2cncs2)cc1` (stereo not shown) [INSCoV-601G, 2-Chloro-N-(2-((4,4-difluorocyclohexyl)amino)-2-oxo-1-(pyrazin-2-yl)ethyl)-N-(4-(thiazol-5-yl)phenyl)acetamide], the IC50 at SARS-CoV-2 M^PRO (setting [1]) came to 80 nM. In the data set on SARS-CoV-2, this molecule displayed a 50% effective concentration (EC50) of 10.2 µM.

In the case of `O=C(NC1CCC(F)(F)CC1)C(c1cnccn1)N(C(=O)CCl)c1ccc(-c2ccns2)cc1` (stereo not shown) [INSCoV-601I, 2-Chloro-N-(2-((4,4-difluorocyclohexyl)amino)-2-oxo-1-(pyrazin-2-yl)ethyl)-N-(4-(isothiazol-5-yl)phenyl)acetamide], on SARS-CoV-2 M^PRO (setting [1]), the IC50 was determined as 62 nM. The same molecule registered an EC50 with SARS-CoV-2 of 11.1 µM.

Take `O=C(NC1CCC(F)(F)CC1)[C@H](c1ccnnc1)N(C(=O)CCl)c1ccc(-c2ccns2)cc1` [INSCoV-601J(2)]: the half-maximal inhibitory concentration (IC50) at SARS-CoV-2 M^PRO (setting [1]) turned out to be 530 nM.

Consider `O=C(NC1CCC(F)(F)CC1)[C@@H](c1cncnc1)N(C(=O)CCl)c1ccc(-c2ccccc2)cc1` [INSCoV-601L], for which the IC50 on SARS-CoV-2 M^PRO (setting [1]) came to 300 nM.

Turning to `CC(=O)c1ccc(NC(=O)[C@@H](c2cnccn2)N(C(=O)CCl)c2ccc(-c3ccns3)cc2)[nH]1` [INSCoV-601M], on SARS-CoV-2 M^PRO (setting [1]), the IC50 is 1150 nM.

On to `CC(C)c1cc(F)c(NC(=O)[C@@H](c2cncnc2)N(C(=O)CCl)c2ccc(-c3ccns3)cc2)c(F)c1` [INSCoV-601O], for which the half-inhibitory concentration (IC50) at SARS-CoV-2 M^PRO (setting [1]) was found to be 3060 nM.

`CC(C(=O)NC1CCC(F)(F)CC1)(c1cncnc1)N(C(=O)CCl)c1ccc(-c2ccno2)cc1` (stereo not shown) [INSCoV-601P, 2-(2-Chloro-N-(4-(isoxazol-5-yl)phenyl)acetamido)-N-(4,4-difluorocyclohexyl)-2-(pyrimidin-5-yl)propanamide]: the half-inhibitory concentration (IC50) on SARS-CoV-2 M^PRO (setting [1]) was found to be 380 nM.

For `O=C(NC1CCOC1)[C@H](c1cncnc1)N(C(=O)CCl)c1ccc(-c2cncs2)cc1` (stereo partly shown) [INSCoV-601R(1A)], at SARS-CoV-2 M^PRO (In vitro potency data, 30 min pre-incubation, 25 nM M^pro, 25 µM substrate, listed as INSCoV-601R(lA), read-out: IC50), the IC50 was 140 nM.

Regarding `O=C(NC1CCOC1)[C@H](c1cncnc1)N(C(=O)CCl)c1ccc(-c2cncs2)cc1` (stereo partly shown) [INSCoV-601R(1B)], on SARS-CoV-2 M^PRO (In vitro potency data, 30 min pre-incubation, 25 nM M^pro, 25 µM substrate, listed as INSCoV-601R(lB), read-out: IC50), the IC50 is 440 nM.

As for `O=C(NC1CCOC1)[C@H](c1cncnc1)N(C(=O)CCl)c1ccc(-c2cncs2)cc1` (stereo partly shown) [INSCoV-601R], at SARS-CoV-2 M^PRO (setting [1]), the IC50 is 120 nM.

For the molecule `O=C(NC1CCC(F)(F)C1)C(c1cncnc1)N(C(=O)CCl)c1ccc(-c2cncs2)cc1` (stereo not shown) [INSCoV-601S], on SARS-CoV-2 M^PRO (setting [1]), the half-maximal inhibitory concentration (IC50) is 90 nM.

Regarding `COC(=O)c1ccc(NC(=O)[C@H](c2cncnc2)N(C(=O)CCl)c2ccc(-c3cncs3)cc2)[nH]1` [INSCoV-601T], the IC50 on SARS-CoV-2 M^PRO (setting [1]) amounted to 170 nM.

In the case of `N#CCC(=O)N(c1ccc(-c2cncs2)cc1)[C@H](C(=O)NC1CCC(F)(F)CC1)c1cncnc1` [INSCoV-612], at SARS-CoV-2 M^PRO (setting [1]), the IC50 stood at 23200 nM.

On to `O=C(NC1CCC(F)(F)CC1)C(c1cncnc1)N(C(=O)C(F)Cl)c1ccc(-c2cncs2)cc1` (stereo not shown) [INSCoV-614, 2-Chloro-N-(2-((4,4-difluorocyclohexyl)amino)-2-oxo-1-(pyrimidin-5-yl)ethyl)-2-fluoro-N-(4-(thiazol-5-yl)phenyl)acetamide], for which the IC50 at SARS-CoV-2 M^PRO (setting [1]) worked out at 330 nM.

For the molecule `O=C(NC1CCC(F)(F)CC1)C(c1cncnc1)N(C(=O)CF)c1ccc(-c2cncs2)cc1` (stereo not shown) [INSCoV-615], the IC50 on SARS-CoV-2 M^PRO (setting [1]) came to 11400 nM.

As for `C=C(F)C(=O)N(c1ccc(-c2cncs2)cc1)C(C(=O)NC1CCC(F)(F)CC1)c1cncnc1` (stereo not shown) [INSCoV-616], the half-inhibitory concentration (IC50) at SARS-CoV-2 M^PRO (setting [1]) came out at 8360 nM.

For the molecule `CC1(C)OCc2cc(N(C(=O)CCl)C(C(=O)Nc3cncc4ccccc34)c3ccno3)cnc21` (stereo not shown) [INSCoV-704], at SARS-CoV-2 M^PRO (setting [1]), the IC50 is 19400 nM.

Take `CNC(=O)c1cc(C)c(NC(=O)C(c2cncnc2)N(C(=O)CCl)c2ccc(-c3cnco3)cc2)c(Cl)c1` (stereo not shown) [INSCoV-6000, 3-chloro-4-[[2-(N-(2-chloroacetyl)-4-oxazol-5-yl-anilino)-2-pyrimidin-5-yl-acetyl]amino]-N,5-dimethyl-benzamide]: the IC50 at SARS-CoV-2 M^PRO (setting [1]) was 1090 nM.
